Reference: patent US20010055776A1, “High throughput cell-based assay kits” (priority 2000, published 2001)

Tested on: hemoglobin synthesis in human erythroid progenitors
Experiment: Filter plate assay of hemoglobin (HbA) in differentiating erythroid progenitors with Europium-labeled anti-hemoglobin
Assay type: cell-based
Details: 168 h, 0.5 mM succinylacetone, 1,000 cells/well, 3.0 μm PCF filter plate, IL-3, IL-6, SCF, EPO, 7 days, read-out: succinylacetone-mediated inhibition of hemoglobin
Protocol: FIG. 6. Adult hemoglobin (HbA) expression by differentiating human erythroid progenitors. Cryopreserved progenitors were thawed and seeded into wells of a 96-well PCF filter plate at a density of 1,000 cells/well and cultured in the presence of IL-3, IL-6, EPO, and SCF ±/−0.5 mM succinylacetone. Hemoglobin was assayed by the filter plate procedure on day 7.
To establish the linearity of the assay relative to cell number, peripheral blood erythrocytes were seeded into wells of PCF filter plates (0.4 μm pore size for peripheral blood erythrocytes and 3.0 μm pore size for progenitor cells), fixed with 0.1 ml 1% formaldehyde for 30 minutes and then washed once with Hank's balanced salt solution (HBSS) (0.2 ml/well) and twice with HBSS containing 0.1% bovine serum albumin (BSA). All washes were done in a Millipore Silent Screen vacuum manifold with a vacuum pressure of 5″ Hg.
The cells were then permeabilized by incubation with 0.2 ml 0.1% Triton X-100 in HBSS-BSA for 10 minutes at room temperature. […] Enhancement Solution (Wallac) was added (0.1 ml/well), and after 5 minutes Europium fluorescence (excitation at […] and emission at 615 nm) was measured over a 400 μsecond time period after an initial delay of 400 μseconds with a Wallac Victor spectrofluorimeter. […]

Compound: CC(=O)CC(=O)CCC(=O)O [succinylacetone]
- inhibition at 500 µM: 86%
